Test results from the supplement of paper PMC11208160.

Assay: recombinant barcode read abundance after kanamycin selection (control-corrected) (log10(CPM+1)); higher = more efficient recombination; sequences stand for … in AGTGCAGAGAAAATCGGCCAGTTTTCTCTGCCTGCAGTCCGCATGCCGT…AGATTTATGCAGCGGACTGCCTTTCTCCCAAAGTGATAAACCGGACAGTATCATGGACCGGTTTTCCCGGTAATCCGTATTTGCAAGGTTGGTTTCACT; site = the 11-nt target
Procedure, shortened: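 IS621 bridge RNA target-binding loops were paired with targets in a pooled library tested in E. coli. After co-electroporation with a donor plasmid, cells were plated in two replicates on chloramphenicol/ampicillin LB agar (control) and on chloramphenicol/ampicillin/kanamycin carrying 0.1 mM IPTG. Barcodes at recombinant junctions were counted as counts per million, averaged and control-corrected to give recombination efficiency. Values are log10(CPM+1).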
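Note: IS621 recombinase and bridge RNA in Escherichia coli cells.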

| Sequence | recombinant barcode read abundance (log10) |
| --- | --- |
| CGGGCAGCTTGGGTTCTAACCTGTTGCCT (site CGGGCAGCTAG) | 0.0664 |
| CGGGCAGCTTGGGTTCTAACCTGTTGCCT (site CGTGCAGCTAG) | 0.156 |
| CGGGCCACTTGGGTTCTAACCTGTTGCGT (site CGGCCCACTCC) | 0.175 |
| CGGGCCACTTGGGTTCTAACCTGTTGCGT (site CGGGCCACTAC) | 2.99 |
| CGGGCGTCTTGGGTTCTAACCTGTTGCTT (site CGGACGTCTCA) | 0.148 |
| CGGGCGTCTTGGGTTCTAACCTGTTGCTT (site CGGGCGTCTAA) | 1.46 |
| CGGTCCTCTTGGGTTCTAACCTGTTGCGC (site CGGGCCTCTGT) | 0.0542 |
| CGGTCCTCTTGGGTTCTAACCTGTTGCGC (site CGGTCCTCTGC) | 2.63 |
| CGGTCTACTTGGGTTCTAACCTGTTGCCT (site CAGTCTACTAG) | 0.0894 |
| CGGTCTACTTGGGTTCTAACCTGTTGCCT (site CCGTCTACTAG) | 0.264 |
| CGGTCTACTTGGGTTCTAACCTGTTGCCT (site CGGTCTACTAG) | 0.219 |
| CGGTCTACTTGGGTTCTAACCTGTTGCCT (site CTGTCTACTAG) | 0.0592 |
| CGGTCTGCTTGGGTTCTAACCTGTTGCAT (site CGGTCTGCTAT) | 0.826 |
| CGGTCTGCTTGGGTTCTAACCTGTTGCAT (site GCTAGGACTCA) | 0.217 |
| CGGTGTCCTTGGGTTCTAACCTGTTGCTT (site AGGTGTCCTAA) | 0.0515 |
| CGGTGTCCTTGGGTTCTAACCTGTTGCTT (site CGGTGTCCTAA) | 1.21 |
| CGGTTGCCTTGGGTTCTAACCTGTTGCGT (site CGGTCGCCTAT) | 0.318 |
| CGGTTGCCTTGGGTTCTAACCTGTTGCGT (site CGGTTGCCTAC) | 2.48 |
| CGTAATGCTTGGGTTCTAACCTGTTGCCT (site CGAAATGCTAG) | 0.178 |
| CGTAATGCTTGGGTTCTAACCTGTTGCCT (site CGCAATGCTAG) | 0.234 |
| CGTAATGCTTGGGTTCTAACCTGTTGCCT (site CGGAATGCTAG) | 0.0453 |
| CGTAATGCTTGGGTTCTAACCTGTTGCCT (site CGTAATGCTAG) | 0.0999 |

| Sequence | recombinant barcode read abundance (log10) |
| --- | --- |
| CGTAGACCTTGGGTTCTAACCTGTTGCTA (site CGTAGACCTTA) | 0.216 |
| CGTAGACCTTGGGTTCTAACCTGTTGCTA (site TTATCCGCTAG) | 0.0216 |
| CGTAGGACTTGGGTTCTAACCTGTTGCCT (site AGTAGGACTAG) | 0.0846 |
| CGTAGGACTTGGGTTCTAACCTGTTGCCT (site CGTAGGACTAG) | 0.209 |
| CGTAGGACTTGGGTTCTAACCTGTTGCCT (site GGTAGGACTAG) | 0.0902 |
| CGTAGGACTTGGGTTCTAACCTGTTGCCT (site TGTAGGACTAG) | 0.0115 |
| CGTATGTCTTGGGTTCTAACCTGTTGCCT (site AGTATGTCTAG) | 0.0814 |
| CGTATGTCTTGGGTTCTAACCTGTTGCCT (site CGTATGTCTAG) | 0.684 |
| CGTATGTCTTGGGTTCTAACCTGTTGCCT (site GGTATGTCTAG) | 0.0736 |
| CGTATGTCTTGGGTTCTAACCTGTTGCCT (site TGTATGTCTAG) | 0.189 |
| CGTCAACCTTGGGTTCTAACCTGTTGCGT (site CGTAAACCTAC) | 0.186 |
| CGTCAACCTTGGGTTCTAACCTGTTGCGT (site CGTCAACCTAC) | 0.205 |
| CGTCAACCTTGGGTTCTAACCTGTTGCGT (site CGTGAACCTAC) | 0.0619 |
| CGTCAACCTTGGGTTCTAACCTGTTGCGT (site CGTTAACCTAC) | 0.242 |
| CGTCATCCTTGGGTTCTAACCTGTTGCCT (site CGTCAACCTAG) | 0.0954 |
| CGTCATCCTTGGGTTCTAACCTGTTGCCT (site CGTCACCCTAG) | 0.0927 |
| CGTCATCCTTGGGTTCTAACCTGTTGCCT (site CGTCAGCCTAG) | 0.112 |
| CGTCATCCTTGGGTTCTAACCTGTTGCCT (site CGTCATCCTAG) | 0.0294 |
| CGTCCACCTTGGGTTCTAACCTGTTGCCT (site AGTCCACCTAG) | 0.198 |
| CGTCCACCTTGGGTTCTAACCTGTTGCCT (site CGTCCACCTAG) | 0.0544 |
| CGTCCACCTTGGGTTCTAACCTGTTGCCT (site GGTCCACCTAG) | 0.1 |
| CGTCCACCTTGGGTTCTAACCTGTTGCCT (site TGTCCACCTAG) | 0.245 |

| Sequence | recombinant barcode read abundance (log10) |
| --- | --- |
| CGTCCTGCTTGGGTTCTAACCTGTTGCCT (site AGTCCTGCTAG) | 0 |
| CGTCCTGCTTGGGTTCTAACCTGTTGCCT (site CGTCCTGCTAG) | 0.488 |
| CGTCCTGCTTGGGTTCTAACCTGTTGCCT (site GGTCCTGCTAG) | 0 |
| CGTCCTGCTTGGGTTCTAACCTGTTGCCT (site TGTCCTGCTAG) | 0.0535 |
| CGTCCTTCTTGGGTTCTAACCTGTTGCCT (site AGTCCTTCTAT) | 0.351 |
| CGTCCTTCTTGGGTTCTAACCTGTTGCCT (site CGTCCTTCTAG) | 0.0421 |
| CGTCGACCTTGGGTTCTAACCTGTTGCCT (site AGTCGACCTAG) | 0.092 |
| CGTCGACCTTGGGTTCTAACCTGTTGCCT (site CGTCGACCTAG) | 0.0617 |
| CGTCGACCTTGGGTTCTAACCTGTTGCCT (site GGTCGACCTAG) | 0.227 |
| CGTCGACCTTGGGTTCTAACCTGTTGCCT (site TGTCGACCTAG) | 0.194 |
| CGTCTGACTTGGGTTCTAACCTGTTGCCA (site CGACTGACTAG) | 0.158 |
| CGTCTGACTTGGGTTCTAACCTGTTGCCA (site CGTCTGACTTG) | 0.241 |
| CGTGAAGCTTGGGTTCTAACCTGTTGCCT (site CGTATAGCTAG) | 0.183 |
| CGTGAAGCTTGGGTTCTAACCTGTTGCCT (site CGTGAAGCTAG) | 0.795 |
| CGTGCGACTTGGGTTCTAACCTGTTGCAT (site CGTACGACTAT) | 0.0517 |
| CGTGCGACTTGGGTTCTAACCTGTTGCAT (site CGTCCGACTAT) | 0.0641 |
| CGTGCGACTTGGGTTCTAACCTGTTGCAT (site CGTGCGACTAT) | 0.109 |
| CGTGCGACTTGGGTTCTAACCTGTTGCAT (site CGTTCGACTAT) | 0.174 |
| CGTGGGGCTTGGGTTCTAACCTGTTGCCT (site CGTATGGCTAG) | 0.075 |
| CGTGGGGCTTGGGTTCTAACCTGTTGCCT (site CGTGGGGCTAG) | 0.156 |
| CGTTCTCCTTGGGTTCTAACCTGTTGCTA (site CGTTCTCCTTA) | 0.637 |
| CGTTCTCCTTGGGTTCTAACCTGTTGCTA (site GCAAGGTCTAT) | 0.0644 |

| Sequence | recombinant barcode read abundance (log10) |
| --- | --- |
| CTAAAGCCTTGGGTTCTAACCTGTTGCCT (site CTAAAGCCTAG) | 1.25 |
| CTAAAGCCTTGGGTTCTAACCTGTTGCCT (site CTAAGGCCTAG) | 0.2 |
| CTAAATACTTGGGTTCTAACCTGTTGCCG (site CTAAATACTCG) | 0.154 |
| CTAAATACTTGGGTTCTAACCTGTTGCCG (site CTAAGCACTCG) | 0.188 |
| CTAAATCCTTGGGTTCTAACCTGTTGCAT (site CTAAATCCTAT) | 0.963 |
| CTAAATCCTTGGGTTCTAACCTGTTGCAT (site CTAACTCCTAT) | 0.0807 |
| CTAAATCCTTGGGTTCTAACCTGTTGCAT (site CTAAGTCCTAT) | 0.0712 |
| CTAAATCCTTGGGTTCTAACCTGTTGCAT (site CTAATTCCTAT) | 0.232 |
| CTAACCTCTTGGGTTCTAACCTGTTGCTA (site CTAACCTCTAA) | 0.0338 |
| CTAACCTCTTGGGTTCTAACCTGTTGCTA (site CTAACCTCTCA) | 0.0433 |
| CTAACCTCTTGGGTTCTAACCTGTTGCTA (site CTAACCTCTGA) | 1.01 |
| CTAACCTCTTGGGTTCTAACCTGTTGCTA (site CTAACCTCTTA) | 1.42 |
| CTAACGACTTGGGTTCTAACCTGTTGCGG (site CTAACGACTCC) | 2.47 |
| CTAACGACTTGGGTTCTAACCTGTTGCGG (site CTAGCGACTCC) | 0.158 |
| CTAACTCCTTGGGTTCTAACCTGTTGCAT (site CTAAATCCTAT) | 0.0865 |
| CTAACTCCTTGGGTTCTAACCTGTTGCAT (site CTAACTCCTAT) | 1.1 |
| CTAACTCCTTGGGTTCTAACCTGTTGCAT (site CTAAGTCCTAT) | 0.0705 |
| CTAACTCCTTGGGTTCTAACCTGTTGCAT (site CTAATTCCTAT) | 0.0675 |
| CTAAGAGCTTGGGTTCTAACCTGTTGCCG (site CTAAGAGCTCG) | 1.65 |
| CTAAGAGCTTGGGTTCTAACCTGTTGCCG (site CTAAGAGCTCT) | 0.504 |
